Read-outs that look alike come from different tables or passages of the source.

Test [1] has as its target recombinant human Mcl-1 (residues 171-327) / Bim interaction (Homo sapiens (Human), UniProt Q07820). The test can be described thus: biochemical. The test is classed as binding. The conditions noted are these: read-out: Mcl-1 HTRF IC50.
The subject of test [2] is human multiple myeloma cell line, OPM-2. The test can be described thus: Cell viability assay (OPM-2 10 FBS), CellTiter-Glo. The test is classed as cell-based. The gist of the method: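 Cells were seeded at 3000 cells/well in RPMI 1640 with 10% FBS and exposed to serially diluted compounds for 16 h at 37 °C, 5% CO2.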
Setting [3] is: TR-FRET, Mcl-1(171-327) / biotin-Bim (51-76).
Setting [4] is: Homo sapiens, OPM-2, 16 h, read-out: OPM-2 10% FBS IC50 IP, OPM-2 cells, 10% FBS, 16 h, CellTiter-Glo.
Setting [5] is: 0.1 nM Mcl-1(171-327), 0.05 nM biotin-Bim (51-76).
[6] abbreviates: Homo sapiens, OPM-2, 16 h, read-out: OPM-2 10% FBS IC50 IP, OPM-2 cells, 10% FBS, 16 h incubation.
Where [7] appears, read: read-out: OPM-2 10% FBS IC50 IP, OPM-2 cells, 10% FBS, 16 h, CellTiter-Glo.

Chain of recombinant human Mcl-1 (residues 171-327) / Bim interaction (Q07820 171-327): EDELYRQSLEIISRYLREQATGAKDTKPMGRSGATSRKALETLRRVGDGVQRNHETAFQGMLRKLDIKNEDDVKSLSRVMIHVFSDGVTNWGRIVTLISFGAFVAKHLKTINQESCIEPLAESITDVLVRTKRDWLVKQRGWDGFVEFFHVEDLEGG

On to `COCCO[C@@]1(C)/C=C/C[C@H](C)[C@@H](C)S(=O)(=O)NC(=O)c2ccc3c(c2)N(C[C@@H]2CC[C@H]21)C[C@@]1(CCCc2cc(Cl)ccc21)CO3` [Example 100466, (1S,3′R,6′R,7′S,8′E,11′S,12′R)-6-chloro-7′-(2-methoxyethoxy)-7′,11′,12′-trimethyl-3,4-dihydro-2H,15′H-spiro[naphthalene-1,22′-[20]oxa[13]thia[1,14]diazatetracyclo [14.2.0~3,6~.0~19,24~]pentacosa[8,16,18,24]tetraen]-15′-one 13′,13′-dioxide], for which the half-inhibitory concentration (IC50) in test [1] (setting [3]) worked out at 0.043 nM; in test [2] (setting [4]) it was 1440 nM.
Taken in the same sequence, the figures for `C[C@@H]1[C@@H](C)C/C=C/[C@](O)(c2ncccn2)[C@@H]2CC[C@H]2CN2C[C@@]3(CCCc4cc(Cl)ccc43)COc3ccc(cc32)C(=O)NS1(=O)=O` (single isomer, unassigned) [Example 100274] were 0.377 nM and 543 nM.
Take `C[C@@H]1[C@@H](C)C/C=C/[C@](O)(C(F)(F)F)[C@@H]2CC[C@H]2CN2C[C@@]3(CCCc4cc(Cl)ccc43)COc3ccc(cc32)C(=O)NS1(=O)=O` [Example 100046, (1S,3′R,6′R,7′R,8′E,11′S,12′R)-6-chloro-7′-hydroxy-11′,12′-dimethyl-7′-(trifluoromethyl)-3,4-dihydro-2H,15′H-spiro[naphthalene-1,22′-[20]oxa[13]thia[1,14]diazatetracyclo [14.7.2.0~3,6~.0~19,24~]pentacosa[8,16,18,24]tetraen]-15′-one 13′,13′-dioxide]: the IC50 in test [1] (setting [3]) came to 3.76 nM; in test [2] (setting [4]) it was 976 nM.
For `C[C@H](C(=O)N(C)C)[C@]1(O)/C=C/C[C@H](C)[C@@H](C)S(=O)(=O)NC(=O)c2ccc3c(c2)N(C[C@@H]2CC[C@H]21)C[C@@]1(CCCc2cc(Cl)ccc21)CO3` [Example 100125, (2S)-2-((1S,3′R,6′R,7′S,8′E,11′S,12′R)-6-chloro-7′-hydroxy-11′,12′-dimethyl-13′,13′-dioxido-15′-oxo-3,4-dihydro-2H-spiro[naphthalene-1,22′-[20]oxa[13]thia[1,14]diazatetracyclo [14.7.2.0~3,6~.0~19,24~]pentacosa[8,16,18,24]tetraen]-7′-yl)-N,N-dimethylpropanamide], in that order: 0.43 nM and 555 nM.
For `CO[C@@]1(CN2CCN3CCOC[C@@H]3C2)/C=C/C[C@H](C)[C@@H](CCO)S(=O)(=O)NC(=O)c2ccc3c(c2)N(C[C@@H]2CC[C@H]21)C[C@@]1(CCCc2cc(Cl)ccc21)CO3` [Example 346, (1S,3′R,6′R,7′S,8′E,11′S,12′R)-6-Chloro-7′-((9aS)-hexahydropyrazino[2,1-c][1,4]oxazin-8(1H)-ylmethyl)-12′-(2-hydroxyethyl)-7′-methoxy-11′-methyl-3,4-dihydro-2H, 15′H-spiro[naphthalene-1,22′-[20]oxa[13]thia[1,14]diazatetracyclo[14.7.2.0-3,6˜.0˜19,24˜]pentacosa[8,16,18,24]tetraen]-15′-one 13′,13′-dioxide], the 50% inhibitory concentration (IC50) came out at 0.062 nM in test [1] (setting [5]) and 66 nM in test [2] (setting [6]).
Take `C[C@@H]1[C@@H](C)C/C=C/[C@@](O)(C#N)[C@@H]2CC[C@H]2CN2C[C@@]3(CCCc4cc(Cl)ccc43)COc3ccc(cc32)C(=O)NS1(=O)=O` [Example 100235, (1S,3′R,6′R,7′S,8′E,11′S,12′R)-6-chloro-7′-hydroxy-11′,12′-dimethyl-15′-oxo-3,4-dihydro-2H-spiro[naphthalene-1,22′-[20]oxa[13]thia[1,14]diazatetracyclo [14.7.2.0~3,6~.0~19,24~]pentacosa[8,16,18,24]tetraene]-7′-carbonitrile 13′,13′-dioxide]: the half-maximal inhibitory concentration (IC50) in test [1] (setting [3]) was determined as 1.34 nM; in test [2] (setting [4]), 644 nM.
Taken in the same sequence, the figures for `CO[C@@]1(CCN2CCN3CCOC[C@@H]3C2)/C=C/C[C@H](C)[C@@H](C)S(=O)(=O)NC(=O)c2ccc3c(c2)N(C[C@@H]2CC[C@H]21)C[C@@]1(CCCc2cc(Cl)ccc21)CO3` [Example 100429, (1S,3′R,6′R,7′S,8′E,11′S,12′R)-6-chloro-7′-(2-((9aS)-hexahydropyrazino[2,1-c][1,4]oxazin-8(1H)-yl)ethyl)-7′-methoxy-11′,12′-dimethyl-3,4-dihydro-2H,15′H-spiro[naphthalene-1,22′-[20]oxa[13]thia[1,14]diazatetracyclo [14.7.2.0~3,6~.0~19,24~]pentacosa[8,16,18,24]tetraen]-15′-one 13′,13′-dioxide] were 0.176 nM and 1420 nM.
Regarding `C[C@@H]1[C@@H](C)CCC[C@](O)(C[C@H]2CCCN(C)C2)[C@@H]2CC[C@H]2CN2C[C@@]3(CCCc4cc(Cl)ccc43)COc3ccc(cc32)C(=O)NS1(=O)=O` (single isomer, unassigned) [Example 100399], the concentration for half-maximal inhibition (IC50) in test [1] (setting [3]) came out at 0.28 nM; in test [2] (setting [4]), 2810 nM.
Taken in the same sequence, the figures for `CC[C@@H]1CC/C=C/[C@@](OC)(C2SCCCS2)[C@@H]2CC[C@H]2CN2C[C@@]3(CCCc4cc(Cl)ccc43)COc3ccc(cc32)C(=O)NS1(=O)=O` (single isomer, unassigned) [Example 100579] were 0.214 nM and 757 nM.
As for `CO[C@@]1(c2cccnc2)/C=C/C[C@H](C)[C@@H](C)S(=O)(=O)NC(=O)c2ccc3c(c2)N(C[C@@H]2CC[C@H]21)C[C@@]1(CCCc2cc(Cl)ccc21)CO3` [Example 100391, (1S,3′R,6′R,7′S,8′E,11′S,12′R)-6-chloro-7′-methoxy-11′,12′-dimethyl-7′-(3-pyridinyl)-3,4-dihydro-2H,15′H-spiro[naphthalene-1,22′-[20]oxa[13]thia[1,14]diazatetracyclo [14.7.2.0~3,6~.0~19,24~]pentacosa[8,16,18,24]tetraen]-15′-one 13′,13′-dioxide], the 50% inhibitory concentration (IC50) in test [1] (setting [3]) came to 0.441 nM; in test [2] (setting [4]), 282 nM.
As for `CO[C@@]1(CN2CCn3nncc3C2)/C=C/C[C@H](C)[C@@H](C)S(=O)(=O)NC(=O)c2ccc3c(c2)N(C[C@@H]2CC[C@H]21)C[C@@]1(CCCc2cc(Cl)ccc21)CO3` [Example 207, (1S,3′R,6′R,7′S,8′E,11′S,12′R)-6-chloro-7′-(6,7-dihydro[1,2,3]triazolo[1,5-a]pyrazin-5(4H)-ylmethyl)-7′-methoxy-11′,12′-dimethyl-3,4-dihydro-2H,15′H-spiro[naphthalene-1,22′-[20]oxa[13]thia[1,14]diazatetracyclo [14.7.2.0~3,6~.0~19,24~]pentacosa[8,16,18,24]tetraen]-15′-one 13′,13′-dioxide], the IC50 in test [1] (setting [5]) stood at 0.137 nM; in test [2] (setting [6]), 395 nM.
As for `C[C@@H]1[C@@H](C)C/C=C/[C@@](O)(C#CCO)[C@@H]2CC[C@H]2CN2C[C@@]3(CCCc4cc(Cl)ccc43)COc3ccc(cc32)C(=O)NS1(=O)=O` [Example 100395, (1S,3′R,6′R,7′S,8′E,11′S,12′R)-6-chloro-7′-hydroxy-7′-(3-hydroxy-1-propyn-1-yl)-11′,12′-dimethyl-3,4-dihydro-2H,15′H-spiro[naphthalene-1,22′-[20]oxa[13]thia[1,14]diazatetracyclo [14.7.2.0~3,6~.0~19,24~]pentacosa[8,16,18,24]tetraen]-15′-one 13′,13′-dioxide], the 50% inhibitory concentration (IC50) in test [1] (setting [3]) came to 0.056 nM; in test [2] (setting [7]), 40 nM.
Taken in the same sequence, the figures for `C[C@@H]1[C@@H](C)C/C=C/[C@@](O)(C#CCN2CCOCC2)[C@@H]2CC[C@H]2CN2C[C@@]3(CCCc4cc(Cl)ccc43)COc3ccc(cc32)C(=O)NS1(=O)=O` (single isomer, unassigned) [Example 100018] were 0.061 nM and 49 nM.
For the molecule `CC[C@@H]1CC/C=C/[C@@](CN2CCN3CCOC[C@@H]3C2)(OC)[C@@H]2CC[C@H]2CN2C[C@@]3(CCCc4cc(Cl)ccc43)COc3ccc(cc32)C(=O)NS1(=O)=O` [Example 30, (1S,3′R,6′R,7′R,8′E,12′R)-6-chloro-12′-ethyl-7′-((9aS)-hexahydropyrazino[2,1-c][1,4]oxazin-8(1H)-ylmethyl)-7′-methoxy-3,4-dihydro-2H,15′H-spiro[naphthalene-1,22′-[20]oxa[13]thia[1,14]diazatetracyclo [14.7.2.0~3,6~.0~19,24~]pentacosa[8,16,18,24]tetraen]-15′-one 13′,13′-dioxide], the IC50 in test [1] (setting [5]) was 0.11 nM; in test [2] (setting [6]), 166 nM.
As to `C[C@@H]1[C@@H](C)C/C=C/[C@](O)(c2cncnc2)[C@@H]2CC[C@H]2CN2C[C@@]3(CCCc4cc(Cl)ccc43)COc3ccc(cc32)C(=O)NS1(=O)=O` [Example 100410, (1S,3′R,6′R,7′R,8′E,11′S,12′R)-6-chloro-7′-hydroxy-11′,12′-dimethyl-7′-(5-pyrimidinyl)-3,4-dihydro-2H,15′H-spiro[naphthalene-1,22′-[20]oxa[13]thia[1,14]diazatetracyclo [14.7.2.0~3,6~.0~19,24~]pentacosa[8,16,18,24]tetraen]-15′-one 13′,13′-dioxide], the IC50 in test [1] (setting [3]) worked out at 0.127 nM; in test [2] (setting [4]) it was 297 nM.
On to `C[C@@H]1[C@@H](C)CCC[C@@](O)(C2CCN(C)CC2)[C@@H]2CC[C@H]2CN2C[C@@]3(CCCc4cc(Cl)ccc43)COc3ccc(cc32)C(=O)NS1(=O)=O` [Example 100382, (1S,3′R,6′R,7′R,11′S,12′R)-6-chloro-7′-hydroxy-11′,12′-dimethyl-7′-(1-methyl-4-piperidinyl)-3,4-dihydro-2H,15′H-spiro[naphthalene-1,22′-[20]oxa[13]thia[1,14]diazatetracyclo [14.7.2.0~3,6~.0~19,24~]pentacosa[16,18,24]trien]-15′-one 13′,13′-dioxide], for which the figures for the IC50 in test [1] (setting [3]) and in test [2] (setting [7]) were 0.471 nM and 312 nM, respectively.

Source of the values: patent US10821115B2, “Compounds that inhibit Mcl-1 protein” (priority 2017, dated 2020).
